Converted amounts (≈) assume the structure as drawn. “And” between values parts separate entries of the source, which are not always exact repeats. Identical values can stand only once. Like-named read-outs stand apart in the source and are kept apart here.
Legend:
Format in all cases: cell-based
[1] = test system: Bacteroides thetaiotaomicron; assay: In vitro antibacterial activity of Example 5 against anaerobes (MIC, agar dilution)
Streptococcus pyogenes [2] = assay: In vitro antibacterial activity of Example 5 (MIC); conditions: for MIC: Streptococcus pyogenes (isolates not further specified)
Propionibacterium acnes = assay: In vitro antibacterial activity of Example 5 against anaerobes (MIC, agar dilution); conditions: Cutibacterium acnes
Proteus mirabilis = assay: In vitro antibacterial activity of Example 5 (MIC)
[3] = test system: Staphylococcus epidermidis; assay: In vitro antibacterial activity of Example 5 (MIC)
Staphylococcus aureus [4] = assay: Emergence of resistance with serial passage; conditions: after twenty passages with Example 5, S. aureus isolates (516 and 2398)
Escherichia coli = assay: In vitro antibacterial activity of Example 5 (MIC)
Streptococcus pneumoniae = assay: Susceptibility testing (MIC) Assay 1, broth microdilution
Streptococcus pyogenes [5] = assay: as above; conditions: Streptococcus pyogenes, Streptococcus pyrgenes, in vivo strain; read-out: Spy MIC
Staphylococcus aureus [6] = assay: as above; conditions: Staphylococcus aureus
Klebsiella oxytoca = assay: In vitro antibacterial activity of Example 5 (MIC)
Staphylococcus aureus [7] = assay: In vitro antibacterial activity of Example 5 (MIC)
Bacillus subtilis = assay: In vitro antibacterial activity of Example 5 (MIC); conditions: 11 strains of Bacillus subtilis
[8] = test system: Staphylococcus aureus, Streptococcus pneumoniae, and S. pyogenes strains with characterized gyrase and topoisomerase mutations; conditions: clinical isolates with mutations in gyrA, gyrB, ParC or ParE
Clostridium perfringens = assay: microbe, parasite or virus in culture
Streptococcus agalactiae = assay: In vitro antibacterial activity of Example 5 (MIC)
Citrobacter koseri = assay: In vitro antibacterial activity of Example 5 (MIC)
Candida albicans = assay: In vitro antibacterial activity of Example 5 (MIC); conditions: ATCC90028; Candida albicans (ATCC 90028 CLSI QC Strain)
[9] = test system: Stenotrophomonas maltophilia; assay: In vitro antibacterial activity of Example 5 (MIC)
Citrobacter freundii = assay: In vitro antibacterial activity of Example 5 (MIC)
Bacteroides fragilis = assay: In vitro antibacterial activity of Example 5 against anaerobes (MIC, agar dilution)
Neisseria gonorrhoeae = assay: In vitro antibacterial activity of Example 5 (MIC, agar dilution); conditions: 17 strains of Neisseria gonorrhoeae
Acinetobacter baumannii = assay: In vitro antibacterial activity of Example 5 (MIC)
Enterobacter cloacae = assay: In vitro antibacterial activity of Example 5 (MIC)

Work on `C[C@@H]1CN2c3c(cc4c(N5C(=O)OC[C@@H]5C)noc4c3F)CC3(C(=O)NC(=O)NC3=O)[C@H]2[C@H](C)O1` [Example 5, (2R,4S,4aS)-11-Fluoro-2,4-dimethyl-8-[(4S)-4-methyl-2-oxo-1,3-oxazolidin-3-yl]-1,2,4,4a-tetrahydro-2′H,6H-spiro[1,4-oxazino[4,3-a][1,2]oxazolo[4,5-g]quinoline-5,5′-pyrimidine]-2′,4′,6′(1′H,3′H)-trione] yielded an MIC ([1]; ATCC29741, Bacteroides thetaiotaomicron (ATCC 29741, CLSI QC Strain)) of 8 µg/mL (≈ 16.4 µM), an MIC ([1]; Bacteroides thetaiotaomicron) of 8 µg/mL (≈ 16.4 µM) and an MIC (Streptococcus pyogenes [2]) of 0.25 µg/mL (≈ 0.513 µM). It also gave an MIC (Streptococcus pyogenes [2]; Streptococcus pyogenes, read-out: MIC) of 0.125 µg/mL (≈ 0.256 µM), an MIC90 (Streptococcus pyogenes [2]; Streptococcus pyogenes, 100 strains of S. pyogenes) of 0.25 µg/mL (≈ 0.513 µM) and an MIC50 (Streptococcus pyogenes [2]; Streptococcus pyogenes, 100 strains of S. pyogenes, read-out: MIC50 (MICH [sic])) of 0.125 µg/mL (≈ 0.256 µM). For the same molecule, the MIC (Propionibacterium acnes) was 2 µg/mL (≈ 4.1 µM), the MIC (Proteus mirabilis) was 8 µg/mL (≈ 16.4 µM) and the MIC ([3]; Staphylococcus epidermidis (MRSE)) was 0.25 µg/mL (≈ 0.513 µM). For the same molecule, the MIC90 ([3]; Staphylococcus epidermidis, S. epidermidis, n=37) was 0.25 µg/mL (≈ 0.513 µM), the “decrease in susceptibility over the starting culture” value (Staphylococcus aureus [4]) was 32 fold and 16 fold and the MIC (Escherichia coli; ATCC25922, Escherichia coli (ATCC 25922 CLSI QC Strain)) was 2 µg/mL (≈ 4.1 µM). It also gave an MIC (Escherichia coli; ATCC25922, Escherichia coli (TolC- of ATCC 25922)) of under 0.06 µg/mL, an MIC (Escherichia coli; ATCC25922, Escherichia coli + 2%Human albumin (ATCC 25922)) of under 0.06 µg/mL and an MIC (Escherichia coli; ATCC35218, Escherichia coli (ATCC 35218 CLSI QC Strain)) of 4 µg/mL (≈ 8.21 µM). For the same molecule, the MIC (Escherichia coli; Escherichia coli (K12(W3110))) was 2 µg/mL (≈ 4.1 µM), the MIC (Streptococcus pneumoniae; in vivo strain (footnote b), read-out: Spn(b) MIC) was 0.39 µM (≈ 0.19 µg/mL) and the MIC (Streptococcus pneumoniae; in vivo strain (footnote c), read-out: Spn(c) MIC) was 0.46 µM (≈ 0.224 µg/mL). For the same molecule, the MIC (Streptococcus pyogenes [5]) was 0.36 µM (≈ 0.175 µg/mL), the MIC (Staphylococcus aureus [6]; Staphylococcus aureus in vivo strain, MSQS, read-out: Sau(d) MIC) was 0.36 µM (≈ 0.175 µg/mL) and the MIC (Staphylococcus aureus [6]; in vivo strain, MRQR, read-out: Sau(e) MIC) was 0.78 µM (≈ 0.38 µg/mL). For the same molecule, the MIC (Staphylococcus aureus [6]; serum, read-out: Sau(f) MIC) was 0.71 µM (≈ 0.346 µg/mL), the MIC (Klebsiella oxytoca) was 32 µg/mL (≈ 65.6 µM) and the MIC90 (Staphylococcus aureus [7]; 100 strains of S. aureus) was 0.25 µg/mL (≈ 0.513 µM). For the same molecule, the MIC (Staphylococcus aureus [7]; ATCC29213, Staphylococcus aureus (ATCC 29213, CLSI QC Strain)) was 0.125 µg/mL (≈ 0.256 µM), the MIC (Staphylococcus aureus [7]; ATCC29213, Staphylococcus aureus + 2%Human albumin (ATCC 29213, CLSI QC Strain)) was 0.25 µg/mL and the MIC (Staphylococcus aureus [7]; MRSA / USA100, Staphylococcus aureus (MRSA, USA100)) was 0.125 µg/mL (≈ 0.256 µM). The MIC (Staphylococcus aureus [7]; MRSA, Staphylococcus aureus (MRSA)) was 0.5 µg/mL (≈ 1.03 µM), the MIC (Staphylococcus aureus [7]; MRSA, Staphylococcus aureus (MRSA, fluoroquinolone-R)) was 0.25 µg/mL (≈ 0.513 µM) and the MIC (Staphylococcus aureus [7]; MSSA, Staphylococcus aureus (MSSA, in vivo strain)) was 0.125 µg/mL (≈ 0.256 µM). For the same molecule, the MIC (Staphylococcus aureus [7]; Staphylococcus aureus (In vivo Strain)) was 0.25 µg/mL (≈ 0.513 µM), the MIC (Staphylococcus aureus [7]; VISA, Staphylococcus aureus (Mu3, VISA)) was 0.25 µg/mL (≈ 0.513 µM) and the MIC90 (Bacillus subtilis) was 0.5 µg/mL (≈ 1.03 µM). The cross resistance [8] was “No cross resistance”, the MIC (Clostridium perfringens) was 0.5 µg/mL (≈ 1.03 µM) and the MIC (Streptococcus agalactiae) was 0.5 µg/mL (≈ 1.03 µM). For the same molecule, the MIC90 (Streptococcus agalactiae; 100 strains of S. Agalactiae) was 0.25 µg/mL (≈ 0.513 µM), the MIC50 (Streptococcus agalactiae; 100 strains of S. Agalactiae, read-out: MIC50 (MICH [sic])) was 0.125 µg/mL (≈ 0.256 µM) and the MIC (Citrobacter koseri) was 64 µg/mL (≈ 131 µM). The MIC (Candida albicans) was over 64 µg/mL, the MIC [9] was over 64 µg/mL and the MIC (Citrobacter freundii) was 16 µg/mL (≈ 32.8 µM). It also gave an MIC (Bacteroides fragilis; Bacteroides fragilis (isolates not further specified)) of 8 µg/mL (≈ 16.4 µM), an MIC (Bacteroides fragilis; Bacteroides fragilis, ATCC25285, Bacteroides fragilis (ATCC 25285, CLSI QC Strain), read-out: MIC) of 2 µg/mL (≈ 4.1 µM) and an MIC (Bacteroides fragilis; Bacteroides fragilis, Bacteroides fragilis (isolates not further specified), read-out: MIC) of 4 µg/mL (≈ 8.21 µM). The MIC90 (Neisseria gonorrhoeae) was 0.125 µg/mL (≈ 0.256 µM), the MIC range (Neisseria gonorrhoeae) was 0.03 to 0.25 µg/mL and the MIC (Acinetobacter baumannii) was 4 µg/mL (≈ 8.21 µM). The MIC (Acinetobacter baumannii; Acinetobacter baumannii (in vivo strain)) was 4 µg/mL (≈ 8.21 µM), the MIC (Acinetobacter baumannii; Acinetobacter baumannii (multi-drug resistant)) was 16 µg/mL (≈ 32.8 µM) and the MIC (Enterobacter cloacae; Enterobacter cloacae (Chromosomal AmpC)) was 32 µg/mL (≈ 65.6 µM). It also gave an MIC (Enterobacter cloacae; Enterobacter cloacae, read-out: MIC) of 32 µg/mL (≈ 65.6 µM).

From patent publication US8889671B2, “Compounds and methods for treating bacterial infections” (AstraZeneca AB, priority 2013, dated 2014)
